Among the data in PubChem BioAssay (NCI) are GI50 and TGI values, retold here.

Some test systems named below: 786-0 renal; CAKI-1 renal; HCT-116 colon; HOP-62 NSCLC; MDA-MB-231 breast; MOLT-4 leukemia; NCI-H522 lung; OVCAR-4 ovarian; RXF 393 renal; SK-MEL-28 melanoma.
Common to all, as to test: NCI-60 cell line screen, 48 h

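Results reflect a 48-hour exposure of cells in 96-well plates to compound at five concentrations. GI50: concentration for 50% inhibition of growth. TGI denotes the concentration required for complete inhibition of growth.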

Take `CCCCNC(=O)Oc1ccc(/C(=C(/CC)Cc2ccccc2)c2ccc(OCCN3CCCCCC3)cc2)cc1`: the GI50 in the experiment on 786-0 renal is 16.2 µM; with CAKI-1 renal, 19.3 µM; in the experiment with HCT-116 colon it was 15.6 µM; in the experiment with HOP-62 NSCLC, 70.8 µM; in the experiment on MDA-MB-231 breast, 19.2 µM; with MOLT-4 leukemia, 21.8 µM. Also, the GI50 with NCI-H522 lung was 20 µM; in the experiment on OVCAR-4 ovarian, 19.2 µM; in the experiment with RXF 393 renal it was 17.3 µM; in the experiment on SK-MEL-28 melanoma it was 16.5 µM. Also, the TGI was 30 µM in the experiment on 786-0 renal; 44.7 µM in the experiment on CAKI-1 renal; 29 µM in the experiment on HCT-116 colon; above 100 µM in the experiment with HOP-62 NSCLC; 36.6 µM in the experiment with MDA-MB-231 breast; 72.7 µM with MOLT-4 leukemia. Also, the TGI with NCI-H522 lung came to 43.8 µM; in the experiment with OVCAR-4 ovarian, 51.3 µM; with RXF 393 renal it was 32.1 µM; in the experiment with SK-MEL-28 melanoma, 33.1 µM.

Take `CC(=O)c1cccc(-c2cccc(-c3ccn(CCN4CCOCC4)n3)c2)c1`: the GI50 in the experiment on 786-0 renal, with CAKI-1 renal, in the experiment on HCT-116 colon, in the experiment with HOP-62 NSCLC, in the experiment on MDA-MB-231 breast and in the experiment with MOLT-4 leukemia was above 20 µM each time. Also, the GI50 in the experiment with NCI-H522 lung, in the experiment with OVCAR-4 ovarian, in the experiment on RXF 393 renal and in the experiment on SK-MEL-28 melanoma was above 20 µM in each case. Also, the TGI in the experiment with 786-0 renal, in the experiment with CAKI-1 renal, in the experiment on HCT-116 colon, in the experiment with HOP-62 NSCLC, with MDA-MB-231 breast and in the experiment on MOLT-4 leukemia was above 20 µM each time. Further, the TGI in the experiment with NCI-H522 lung, with OVCAR-4 ovarian, in the experiment with RXF 393 renal and with SK-MEL-28 melanoma was above 20 µM each time.

Take `O=C(O)c1cccc(/C=C/c2ccccc2)c1`: the TGI with 786-0 renal, in the experiment on CAKI-1 renal, in the experiment with HCT-116 colon, in the experiment with HOP-62 NSCLC, in the experiment on MDA-MB-231 breast and with MOLT-4 leukemia was above 100 µM in each case. Moreover, the TGI in the experiment on NCI-H522 lung, in the experiment on OVCAR-4 ovarian, with RXF 393 renal and in the experiment on SK-MEL-28 melanoma was above 100 µM in each case.

Consider `O=C(Nc1ccc(Br)cc1)Nc1nn(C(=O)Nc2ccc(Br)cc2)c2ccccc12`, for which the GI50 in the experiment on 786-0 renal is 34.3 µM; with CAKI-1 renal, 44.2 µM; in the experiment with HCT-116 colon it was 16.9 µM; with HOP-62 NSCLC, 26.4 µM; in the experiment with MDA-MB-231 breast it was 27.2 µM; with MOLT-4 leukemia, 2.49 µM. The GI50 is 31 µM with NCI-H522 lung, 22.6 µM in the experiment with OVCAR-4 ovarian and 96.9 µM with SK-MEL-28 melanoma. Moreover, the TGI in the experiment on 786-0 renal was above 100 µM; in the experiment with CAKI-1 renal, above 84 µM; in the experiment on HCT-116 colon it was above 100 µM; in the experiment on HOP-62 NSCLC it was above 72.8 µM; in the experiment with MDA-MB-231 breast, above 100 µM; in the experiment with NCI-H522 lung, above 100 µM. Moreover, the TGI with OVCAR-4 ovarian is above 66.8 µM; in the experiment on RXF 393 renal, above 45.9 µM; in the experiment with SK-MEL-28 melanoma it was above 100 µM.

Turning to `C[C@]12CC[C@@H](OC(=O)N(CCCl)N=O)C[C@@H]1CC[C@@H]1[C@@H]2CC[C@]2(C)C(=O)CC[C@@H]12`, the GI50 with 786-0 renal is 0.891 µM; with CAKI-1 renal, 1.67 µM; in the experiment on HCT-116 colon, 7.25 µM; in the experiment with HOP-62 NSCLC, 5.48 µM; in the experiment with MDA-MB-231 breast, 13.5 µM; in the experiment on NCI-H522 lung it was 9.06 µM. In addition, the GI50 was 14.9 µM with OVCAR-4 ovarian and 14.7 µM with SK-MEL-28 melanoma. In addition, the TGI with 786-0 renal is 16.7 µM; with CAKI-1 renal, 20.7 µM; in the experiment on HCT-116 colon, 30.5 µM; in the experiment with HOP-62 NSCLC, 27 µM; with MDA-MB-231 breast, 29.8 µM; in the experiment on MOLT-4 leukemia it was above 57.7 µM. For the same molecule, the TGI worked out at 30.8 µM in the experiment with NCI-H522 lung, 53.4 µM in the experiment on OVCAR-4 ovarian and 29.6 µM in the experiment on SK-MEL-28 melanoma.

Regarding `C/C=C(/C)c1cnc(CC(C)C)c(=O)[nH]1`, the TGI in the experiment with 786-0 renal, in the experiment with CAKI-1 renal, in the experiment on HCT-116 colon, with HOP-62 NSCLC, in the experiment with MDA-MB-231 breast and in the experiment on MOLT-4 leukemia was above 100 µM each time. Besides, the TGI in the experiment on OVCAR-4 ovarian, in the experiment on RXF 393 renal and with SK-MEL-28 melanoma was above 100 µM each time.

In the case of `COc1nc(C)cc2c(=O)n(-c3ccccc3)n(CC(O)CN3CCN(c4ccc(Cl)cc4)CC3)c(=O)c12` (stereo unspecified), the GI50 in the experiment on 786-0 renal was 25.8 µM; in the experiment on CAKI-1 renal, above 50 µM; in the experiment on HCT-116 colon, above 50 µM; in the experiment on HOP-62 NSCLC, 37.9 µM; in the experiment with MDA-MB-231 breast it was above 50 µM; in the experiment on MOLT-4 leukemia it was above 50 µM. Besides, the values for the GI50 with NCI-H522 lung, in the experiment with OVCAR-4 ovarian and in the experiment on SK-MEL-28 melanoma were 25.8 µM, 36.8 µM and above 50 µM, respectively. The TGI in the experiment on 786-0 renal, in the experiment on CAKI-1 renal, in the experiment with HCT-116 colon, in the experiment with HOP-62 NSCLC, with MDA-MB-231 breast and in the experiment on MOLT-4 leukemia was above 50 µM each time. For the same molecule, the TGI with NCI-H522 lung, in the experiment with OVCAR-4 ovarian and in the experiment on SK-MEL-28 melanoma was above 50 µM throughout.

For the molecule `COc1cc2c3c(ncc2c(OC)c1OC)-c1cc2c(cc1C3)OCO2`, the GI50 in the experiment on 786-0 renal is 33.7 µM; in the experiment with CAKI-1 renal it was 42.5 µM; in the experiment on HCT-116 colon, 22.1 µM; with MDA-MB-231 breast, 11.5 µM; in the experiment on OVCAR-4 ovarian it was 54 µM; in the experiment on SK-MEL-28 melanoma, 39.1 µM. The TGI in the experiment with 786-0 renal was above 100 µM; in the experiment with CAKI-1 renal, above 100 µM; in the experiment on HCT-116 colon it was 36.5 µM; in the experiment on MDA-MB-231 breast it was 29.5 µM; in the experiment on OVCAR-4 ovarian it was above 100 µM; with SK-MEL-28 melanoma it was above 100 µM.

For the molecule `CC[C@@]12C=CCN3CC[C@]4(c5cc(NC(=O)COc6cc(OCC(=O)Nc7cc8c(cc7OC)N(C)[C@H]7[C@@](O)(C(=O)OC)[C@H](OC(C)=O)[C@]9(CC)C=CCN%10CC[C@]87[C@@H]%109)cc7oc(-c8ccccc8)cc(=O)c67)c(OC)cc5N(C)[C@@H]4[C@](O)(C(=O)OC)[C@H]1OC(C)=O)[C@H]32`, the GI50 with 786-0 renal is 3.58 µM; with CAKI-1 renal, 4.52 µM; in the experiment with HCT-116 colon, 1.79 µM; in the experiment on HOP-62 NSCLC, 3.08 µM; with MDA-MB-231 breast, 2.68 µM; in the experiment with MOLT-4 leukemia it was 2.79 µM. Moreover, the GI50 is 2.15 µM with NCI-H522 lung, 1.58 µM in the experiment with RXF 393 renal and above 100 µM with SK-MEL-28 melanoma. Further, the TGI was 14.9 µM in the experiment on 786-0 renal; above 100 µM with CAKI-1 renal; 6.14 µM in the experiment with HCT-116 colon; above 100 µM in the experiment with HOP-62 NSCLC; 9.08 µM with MDA-MB-231 breast; above 100 µM in the experiment with MOLT-4 leukemia. The TGI with NCI-H522 lung is 6.03 µM; in the experiment on RXF 393 renal, 3.28 µM; in the experiment on SK-MEL-28 melanoma it was above 100 µM.

On to `CCN(CC)CCOc1c(OC)c(Br)cc2c(C)c(C(=O)OC)oc12`, for which the GI50 was 1.71 µM in the experiment with 786-0 renal; 1.26 µM with CAKI-1 renal; 1.17 µM with HCT-116 colon; 1.22 µM in the experiment on MDA-MB-231 breast; 0.374 µM in the experiment with MOLT-4 leukemia; 1.32 µM in the experiment with NCI-H522 lung. For the same molecule, in the experiment with RXF 393 renal, the GI50 was 4.17 µM. Further, the TGI was 6.04 µM in the experiment on 786-0 renal; 3.5 µM in the experiment with CAKI-1 renal; 3.15 µM in the experiment on HCT-116 colon; 3.46 µM with MDA-MB-231 breast; 1.23 µM in the experiment with MOLT-4 leukemia; 11.9 µM in the experiment with NCI-H522 lung. Moreover, the TGI in the experiment with RXF 393 renal stood at 13 µM.

On to `COC(=O)c1ccc(CN2C(=O)C(Cl)=C(Nc3ccc(OC)c(Cl)c3)C2=O)cc1`, for which the GI50 with 786-0 renal is 36.2 µM; in the experiment with CAKI-1 renal, 17.3 µM; in the experiment on HCT-116 colon, 13.3 µM; in the experiment on HOP-62 NSCLC, 22.7 µM; with MDA-MB-231 breast, 7.14 µM; with MOLT-4 leukemia, 5.83 µM. Further, the GI50 in the experiment on NCI-H522 lung was 3.84 µM; with RXF 393 renal it was 11.2 µM; in the experiment with SK-MEL-28 melanoma, 8.48 µM. Also, the TGI is above 50 µM with 786-0 renal; above 50 µM with CAKI-1 renal; above 50 µM in the experiment with HCT-116 colon; above 50 µM with HOP-62 NSCLC; 26.3 µM in the experiment with MDA-MB-231 breast; 49 µM in the experiment on MOLT-4 leukemia. Also, the TGI was determined as 21.5 µM in the experiment with NCI-H522 lung, 26.1 µM in the experiment on RXF 393 renal and 30.7 µM with SK-MEL-28 melanoma.

`C[C@]12CC[C@H]3[C@@H](CC[C@]4(O)C[C@@H](O)CC[C@]34CO)[C@@]1(O)CC[C@@H]2C1=CC(=O)OC1`: the TGI is 11.7 µM with 786-0 renal; 4.31 µM with HCT-116 colon; 3.89 µM in the experiment with HOP-62 NSCLC; above 51.3 µM with MDA-MB-231 breast; 0.726 µM with MOLT-4 leukemia; 4.94 µM with NCI-H522 lung. For the same molecule, the TGI worked out at 1.58 µM with RXF 393 renal and 22.5 µM with SK-MEL-28 melanoma.

For `Clc1ccc2c(c1)[nH]c1c2nc2sccn21`, the TGI in the experiment with 786-0 renal, with CAKI-1 renal, in the experiment with HCT-116 colon, in the experiment on HOP-62 NSCLC, with MOLT-4 leukemia and in the experiment on NCI-H522 lung was above 100 µM throughout. Also, the TGI with OVCAR-4 ovarian, in the experiment with RXF 393 renal and in the experiment with SK-MEL-28 melanoma was above 100 µM in each case.
